Laboratory results from paper PMC11003925, “Antimicrobial activity and properties of de novo design of short synthetic lipopeptides” (Folia Microbiologica, 2024).
In brackets after ≈: the same amount, converted by molar mass. Like-named read-outs stand apart in the source and are kept apart here. Residues, ends and D or L forms follow the SMILES beside them. *: point of attachment. Lithocholoyl = C[C@H](CCC(=O)*)[C@H]1CC[C@H]2[C@@H]3CC[C@@H]4C[C@H](O)CC[C@]4(C)[C@H]3CC[C@]12C; Palmitoyl = CCCCCCCCCCCCCCCC(=O)*

Tests used:
A. baumannii DBM 3183 = assay: microbe, parasite or virus in culture; format: cell-based, Acinetobacter baumannii; conditions: for IC50: DBM 3183, 25 h
Experimental: (§1) A Bioscreen C automated microbiology growth curve analysis system (Growth Curves, Piscataway, NJ, USA) was used for the quantitative determination of antimicrobial activity (minimal inhibitory concentration, MIC) of PAL/LCA-peptides. Optical density was measured with a wide bandpass filter (wavelength range 420–580 nm) at regular intervals and temperatures. This assay was performed in a special microtiter plate (10 × 10 wells) that allowed the simultaneous testing of a large number of samples against several microorganisms. The total testing volume was 100 µL, obtained by mixing 10 µL of microbial culture with OD600 equal to 0.1 with growth medium and a solution of the tested compounds. The positive controls were vancomycin and tetracycline for Bacillus subtilis (100 µg/mL) for Gram-positive bacteria, kanamycin, and tetracycline for Acinetobacter baumannii (100 µg/mL) for Gram-negative bacteria, and clotrimazole or amphotericin (100 µg/mL) for fungi. The maximal concentration of tested lipoproteins was 1 mg/mL. A pure growth medium was used as the negative control. The measurement period was 25 h. The lowest concentration with a 100% inhibition effect for 24 h of incubation was chosen as the MIC. The antibacterial activity of each compound was expressed as the minimum inhibitory concentration MIC (MIC is the lowest concentration of the compound needed to inhibit the growth of bacterial cells) and IC50 (IC50 is the concentration of the compound needed to inhibit the growth of bacterial cells by 50%).

E. coli DBM 3001 = format: cell-based; conditions: for IC50: DBM 3001, 25 h
Experimental: as §1

E. faecalis DBM 3075 = format: cell-based; conditions: DBM 3075, 25 h
Experimental: as §1

Ps. aeruginosa DBM 3081 = format: cell-based, Pseudomonas aeruginosa; conditions: for IC50: 25 h
Experimental: as §1

B. subtilis DBM 3006 = format: cell-based, Bacillus subtilis; conditions: for MIC: DBM 3006, 24 h; for IC50: DBM 3006, 25 h
Experimental: as §1

M. luteus DBM 3053 = format: cell-based, Micrococcus luteus; conditions: for MIC: DBM 3053, 24 h; for IC50: DBM 3053, 25 h
Experimental: as §1

Staph. aureus DBM 3002 = format: cell-based, Staphylococcus aureus; conditions: for MIC: 24 h; for IC50: 25 h
Experimental: as §1

Staph. aureus MRSA1 = format: cell-based, Staphylococcus aureus; conditions: for MIC: 24 h; for IC50: 25 h
Experimental: as §1

C. tropicalis DBM 2166 = format: cell-based, Candida tropicalis; conditions: for IC50: DBM 2166, 25 h
Experimental: as §1

plasmid pGreen 0029 = assay: DNA binding assay (gel retardation); conditions: for weight ratio lipopeptide:DNA influencing electrophoretic mobility: 50 ng DNA, 1 h room temperature, 1% agarose gel
Experimental: This assay was performed as described by Park et al. ([1998]), with a few modifications. […] The reaction mixture was incubated at room temperature for 1 h. Subsequently, 4 µL of native loading buffer (10% Ficol, 10 mM Tris–HCl (pH 7.5), 50 mM EDTA, 0.25% bromophenol blue) was added. An aliquot was applied to 1% agarose gel electrophoresis in 0.5xTris borate-EDTA buffer. Circular plasmid DNA was isolated from (Luria–Bertani medium with AMPI in final concentration 100 µg/mL) bacterial strain E. coli DH5α / pBluescriptII KS- that had been grown overnight, and linearization was performed overnight by enzymatic reaction using restriction endonuclease EcoRV at 37 °C. The evaluation was performed by visualizing the DNA with the intercalation dye Midori Green Advanced DNA Stain under UV light. Reduced electrophoretic mobility compared to the control is considered to be evidence of peptide binding to DNA.
According to the previous results, we decided to clarify one of the possible molecular interaction mechanisms, the ability of the studied lipopeptides to bind microbial plasmid DNA. Based on the assumption that pore formation is only one of the influencing factors, which arose from previous results, the effect on one of the possible intracellular targets, DNA, was determined. This determination was carried out on isolated plasmid DNA, specifically on two plasmids, pGreen 0029 and pBluescript II KS- in circular and linearized form.

HEK293T = assay: Cytotoxicity assay (xCELLigence impedance); format: cell-based, human; conditions: 24 h exposure
Experimental: (§2) Experiments were carried out using an xCELLigence RTCA DP Instrument (Roche Diagnostics GmbH, Mannheim, Germany) which was placed into an incubator (37 °C and 5% CO2). Cell proliferation and cytotoxicity experiments were performed using modified 16-well plates (E-plate, Roche Diagnostics GmbH, Mannheim, Germany). Microelectrodes were attached to the bottom of the wells for the impedance-based detection of attachment, spreading, and proliferation of the cells (Stoddart [2011]). This system monitors cellular events in real time without the incorporation of labels by measuring electrical impedance across an interdigitated microelectrode integrated into the bottom of this special tissue culture plate. This impedance measurement improves upon conventional endpoint assays and provides quantitative information about the biological status of the cells, including cell number, adhesion, viability, and morphology. Ninety microliters of cultivation medium was used for the blank sample, and subsequently, 100 µL of HepG2 or HEK293T cell suspension (7 × 10^5 cells/mL) was added and placed into the incubator (37 °C, 95% humidity, 5% CO2). […] Chrysophsin-3 at a concentration of 100 µg/mL was used as a positive control and solvent (deionized water) as a negative control. Subsequent incubation was performed for at least an additional 24 h. The result of the measurement was viability curves. After the measurement, percentages of tissue culture growth inhibition were calculated for all the tested substances, as follows: %inhibition=(1-(ΔϕCIsample)/(ΔϕCIcontrol))·100
(§3) Δ∅CIsample … the difference between the first and last average CI (cell index) values of the tissue culture in the presence of the tested sample.
(§4) Δ∅CIcontrol … the difference between the first and last average CI values of the tissue culture itself.

HepG2 = assay: Cytotoxicity assay (xCELLigence impedance); format: cell-based, human; conditions: 24 h exposure
Experimental: as §2, §3, §4

[1] = tested on: all the tested microorganisms; assay: Microtitre dilution screening at 1 mg/mL; format: cell-based; conditions: c = 1 mg/mL, microtitre dilution method
Experimental: as §1

Staph. aureus = assay: Transmission electron microscopy of treated bacteria; format: cell-based, Staphylococcus aureus; conditions: 1 to 4 h incubation; media with (Mueller–Hinton broth 2) and without nutrients (potassium phosphate buffer)
Experimental: Pictures of damaged bacterial cells were obtained by transmission electron microscopy after 1 to 4 h of incubation. Cells of the Gram-positive bacterial strains were not stained. A JEOL JEM-1010 transmission electron microscope (JEOL, Tokyo, Japan) equipped with a MegaView III CCD camera was used for visualization, and evaluation was performed with the program for image analysis AnalySIS software v. 2.0 (Soft Imaging Systems). The samples were plated on a carbon-coated electron microscopic grid and observed with an accelerating voltage of 80 kV.

[2] = first value of cell 'MIC / IC50', 100% inhibition for 24 h

Row | Molecule | IC50 (A. baumannii DBM 3183) | IC50 (E. coli DBM 3001) | IC50 (E. faecalis DBM 3075) | IC50 (Ps. aeruginosa DBM 3081) | IC50 (B. subtilis DBM 3006) | MIC (M. luteus DBM 3053) [µg/mL] | IC50 (M. luteus DBM 3053) [µg/mL] | IC50 (Staph. aureus DBM 3002) | MIC (Staph. aureus MRSA1) [µg/mL] | IC50 (Staph. aureus MRSA1) [µg/mL] | IC50 (C. tropicalis DBM 2166) | % inhibition (HEK293T; c 50 µg/mL) [%] | % inhibition (HEK293T; c 100 µg/mL) [%] | % inhibition (HEK293T; c 200 µg/mL) [%] | % inhibition (HepG2; c 50 µg/mL) [%] | % inhibition (HepG2; c 100 µg/mL) [%] | growth inhibition / activity in screening [1] | other results
1 | CCCCCCCCCCCCCCCC(=O)NCC(=O)N[C@H](C(=O)N[C@@H](CC(C)C)C(=O)N[C@@H](CCCCN)C(=O)N[C@@H](CCCNC(=N)N)C(=O)N[C@@H](C)C(N)=O)C(C)C [SHP-3.2, PAL-GVLKRA-NH2] (Palmitoyl-GVLKRA-NH2) | N / > 100.0 µg/mL | 100.0 µg/mL (≈ 114 µM) | N / > 100.0 µg/mL | 100.0 µg/mL (≈ 114 µM) | 50.0 µg/mL (≈ 56.8 µM) | 5.8 (≈ 6.59 µM) | 10.0 (≈ 11.4 µM) | 30.0 µg/mL (≈ 34.1 µM) | 6.8 (≈ 7.73 µM) | 12.5 (≈ 14.2 µM) | N / > 100.0 µg/mL | 4.1 ± 0.6 | 29.6 ± 4.4 | 0.0 ± 0.3 | 17.0 ± 2.6 | 20.7 ± 3.1 |  | MIC (E. coli DBM 3001; DBM 3001, 24 h): 68.7 µg/mL (≈ 78 µM); MIC (Ps. aeruginosa DBM 3081; 24 h): 83.6 µg/mL (≈ 95 µM); MIC (B. subtilis DBM 3006): 41.1 µg/mL (≈ 46.7 µM); MIC (Staph. aureus DBM 3002): 8.6 µg/mL (≈ 9.77 µM); influence on electrophoretic mobility of plasmid DNA (plasmid pGreen 0029; circular or linearized forms, tested ratios): did not exhibit any influence; % inhibition (HepG2; c 200 µg/mL): 23.2 ± 3.5%
2 | NC[C@H]1O[C@H](O[C@H]2[C@H](O)[C@@H](O[C@H]3O[C@H](CO)[C@@H](O)[C@H](N)[C@H]3O)[C@H](N)C[C@@H]2N)[C@H](O)[C@@H](O)[C@@H]1O [kanamycin, reference compound] |  |  |  |  |  |  |  |  |  |  |  |  |  |  |  |  |  | MIC (Ps. aeruginosa DBM 3081; [2]): 20 µg/mL (≈ 41.3 µM)
3 | CN(C)[C@@H]1C(O)=C(C(N)=O)C(=O)[C@@]2(O)C(O)=C3C(=O)c4c(O)cccc4[C@@](C)(O)[C@H]3C[C@@H]12 [tetracycline, reference compound] |  |  |  |  |  |  |  |  |  |  |  |  |  |  |  |  |  | MIC (A. baumannii DBM 3183; Acinetobacter baumannii, DBM3183, first value of cell 'MIC / IC50', lowest concentration with 100% inhibition for 24 h, 100 µL, OD 420–580 nm): 10 µg/mL (≈ 22.5 µM)
4 | CCCCCCCCCCCCCCCC(=O)N[C@@H](CC(C)C)C(=O)N[C@H](C(=O)N[C@@H](CCCCN)C(=O)NCC(=O)N[C@@H](C)C(=O)N[C@@H](CCCNC(=N)N)C(N)=O)C(C)C [SHP-2.2, PAL-LVKGAR-NH2] (Palmitoyl-LVKGAR-NH2) | N / > 100.0 µg/mL | N / > 100.0 µg/mL | N / > 100.0 µg/mL | N / > 100.0 µg/mL | N / > 100.0 µg/mL | 7.0 (≈ 7.95 µM) | 10.0 (≈ 11.4 µM) | N / > 100.0 µg/mL | 14.9 (≈ 16.9 µM) | 25.0 (≈ 28.4 µM) | N / > 100.0 µg/mL | 11.1 ± 1.7 | 19.3 ± 2.9 | 28.6 ± 4.3 | 4.3 ± 0.6 | 11.4 ± 1.7 |  | % inhibition (HepG2; c 200 µg/mL): 18.5 ± 2.8%
5 | GVLKRA-NH2 [SHP-3.1] |  |  |  |  |  |  |  |  |  |  |  |  |  |  |  |  | low activity | growth inhibition (B. subtilis DBM 3006; c = 1 mg/mL): One hundred percent
6 | CC(C)C[C@H](NC(=O)[C@@H](NC(=O)CNC(=O)CC[C@@H](C)[C@H]1CC[C@H]2[C@@H]3CC[C@@H]4C[C@H](O)CC[C@]4(C)[C@H]3CC[C@]12C)C(C)C)C(=O)N[C@@H](CCCCN)C(=O)N[C@@H](CCCNC(=N)N)C(=O)N[C@@H](C)C(N)=O [SHP-3.3, LCA-GVLKRA-NH2] (Lithocholoyl-GVLKRA-NH2) | N / > 100.0 µg/mL | N / > 100.0 µg/mL | N / > 100.0 µg/mL | N / > 100.0 µg/mL | 50.0 µg/mL (≈ 50 µM) | 1.5 (≈ 1.5 µM) | 5.0 (≈ 5 µM) | 50.0 µg/mL (≈ 50 µM) | 25.2 (≈ 25.2 µM) | 50.0 (≈ 50 µM) | 30.0 µg/mL (≈ 30 µM) | 7.8 ± 1.2 | 28.5 ± 4.3 | 88.2 ± 13.2 | 4.3 ± 0.6 | 35.6 ± 5.3 |  | MIC (B. subtilis DBM 3006): 34.3 µg/mL (≈ 34.3 µM); MIC (Staph. aureus DBM 3002): 28.8 µg/mL (≈ 28.8 µM); MIC (C. tropicalis DBM 2166; [2]): 10.0 µg/mL (≈ 10 µM); weight ratio lipopeptide:DNA influencing electrophoretic mobility (plasmid pGreen 0029; circular plasmid): 1.0; weight ratio lipopeptide:DNA influencing electrophoretic mobility (plasmid pGreen 0029; linearized plasmid): 10.0; morphological effect on bacterial cells (TEM) (Staph. aureus): damaging cellular envelopes
7 | LVKGAR-NH2 [SHP-2.1, primary hexapeptide with C-terminal amidation] |  |  |  |  |  |  |  |  |  |  |  |  |  |  |  |  | low activity | 
8 | LVKRAG-NH2 [SHP-1.1, primary hexapeptide with C-terminal amidation] |  |  |  |  |  |  |  |  |  |  |  |  |  |  |  |  | low activity | growth inhibition (M. luteus DBM 3053; c = 1 mg/mL): One hundred percent; growth inhibition (Staph. aureus DBM 3002; c = 1 mg/mL, Staphylococcus aureus, strain not stated): One hundred percent
